The text below walks through data of patent US6420383B1, “Thiepino[3,2-b]dihydropyridines and related compositions and methods” (Ortho-McNeil Pharmaceutical, Inc., priority 2000, dated 2002).

The test deals with T1, calcium channel (3H-nitrendipine binding, heart membranes) (Oryctolagus cuniculus, UniProt P15381).
T1 construct: from tissue; host or cells: rabbit heart membrane preparation
Nature of the test: Assay for inhibition of nitrendipine binding (calcium channel antagonist activity). The conditions noted are these: 3H-nitrendipine 0.05-0.50 nM, rabbit heart membranes, 90 minutes at 4° C. As to the method: Female, New Zealand white rabbits (1-2 kg) are sacrificed by cervical dislocation, and the heart is immediately removed, cleaned and chopped into small pieces. The tissue is homogenized in 5×times volume of 0.05M Hepes buffer, pH 7.4. The homogenate is centrifuged at 4000 g for 10 minutes, and the supernatant is re-centrifuged at 42,000×g for 90 minutes. The resulting membrane pellet is re-suspended (0.7 ml/g weight) in 0.05M Hepes, pH 7.4 and stored at […] until used. Each tube of the binding assay contains ^3H-nitrendipine (0.05-0.50 nM), buffer, membranes (0.10 ml), and test compound in a total volume of 1.0 ml. After 90 minutes at 4° C., the bound nitrendipine is separated from the unbound by filtration on Whatman GF/C filters. After rinsing, the filters are dried and counted in a liquid scintillation counter.
Non-specific binding of ^3H-nitrendipine (that amount bound in the presence of excess unlabelled nitrendipine) is subtracted from the total bound to obtain specifically bound radiolabeled nitrendipine. The amount of specifically bound nitrendipine in the presence of a test compound is compared to that amount bound in the absence of a compound. A percent displacement (or inhibition) can then be calculated.

T1 sequence (P15381 whole entry, other chains not shown): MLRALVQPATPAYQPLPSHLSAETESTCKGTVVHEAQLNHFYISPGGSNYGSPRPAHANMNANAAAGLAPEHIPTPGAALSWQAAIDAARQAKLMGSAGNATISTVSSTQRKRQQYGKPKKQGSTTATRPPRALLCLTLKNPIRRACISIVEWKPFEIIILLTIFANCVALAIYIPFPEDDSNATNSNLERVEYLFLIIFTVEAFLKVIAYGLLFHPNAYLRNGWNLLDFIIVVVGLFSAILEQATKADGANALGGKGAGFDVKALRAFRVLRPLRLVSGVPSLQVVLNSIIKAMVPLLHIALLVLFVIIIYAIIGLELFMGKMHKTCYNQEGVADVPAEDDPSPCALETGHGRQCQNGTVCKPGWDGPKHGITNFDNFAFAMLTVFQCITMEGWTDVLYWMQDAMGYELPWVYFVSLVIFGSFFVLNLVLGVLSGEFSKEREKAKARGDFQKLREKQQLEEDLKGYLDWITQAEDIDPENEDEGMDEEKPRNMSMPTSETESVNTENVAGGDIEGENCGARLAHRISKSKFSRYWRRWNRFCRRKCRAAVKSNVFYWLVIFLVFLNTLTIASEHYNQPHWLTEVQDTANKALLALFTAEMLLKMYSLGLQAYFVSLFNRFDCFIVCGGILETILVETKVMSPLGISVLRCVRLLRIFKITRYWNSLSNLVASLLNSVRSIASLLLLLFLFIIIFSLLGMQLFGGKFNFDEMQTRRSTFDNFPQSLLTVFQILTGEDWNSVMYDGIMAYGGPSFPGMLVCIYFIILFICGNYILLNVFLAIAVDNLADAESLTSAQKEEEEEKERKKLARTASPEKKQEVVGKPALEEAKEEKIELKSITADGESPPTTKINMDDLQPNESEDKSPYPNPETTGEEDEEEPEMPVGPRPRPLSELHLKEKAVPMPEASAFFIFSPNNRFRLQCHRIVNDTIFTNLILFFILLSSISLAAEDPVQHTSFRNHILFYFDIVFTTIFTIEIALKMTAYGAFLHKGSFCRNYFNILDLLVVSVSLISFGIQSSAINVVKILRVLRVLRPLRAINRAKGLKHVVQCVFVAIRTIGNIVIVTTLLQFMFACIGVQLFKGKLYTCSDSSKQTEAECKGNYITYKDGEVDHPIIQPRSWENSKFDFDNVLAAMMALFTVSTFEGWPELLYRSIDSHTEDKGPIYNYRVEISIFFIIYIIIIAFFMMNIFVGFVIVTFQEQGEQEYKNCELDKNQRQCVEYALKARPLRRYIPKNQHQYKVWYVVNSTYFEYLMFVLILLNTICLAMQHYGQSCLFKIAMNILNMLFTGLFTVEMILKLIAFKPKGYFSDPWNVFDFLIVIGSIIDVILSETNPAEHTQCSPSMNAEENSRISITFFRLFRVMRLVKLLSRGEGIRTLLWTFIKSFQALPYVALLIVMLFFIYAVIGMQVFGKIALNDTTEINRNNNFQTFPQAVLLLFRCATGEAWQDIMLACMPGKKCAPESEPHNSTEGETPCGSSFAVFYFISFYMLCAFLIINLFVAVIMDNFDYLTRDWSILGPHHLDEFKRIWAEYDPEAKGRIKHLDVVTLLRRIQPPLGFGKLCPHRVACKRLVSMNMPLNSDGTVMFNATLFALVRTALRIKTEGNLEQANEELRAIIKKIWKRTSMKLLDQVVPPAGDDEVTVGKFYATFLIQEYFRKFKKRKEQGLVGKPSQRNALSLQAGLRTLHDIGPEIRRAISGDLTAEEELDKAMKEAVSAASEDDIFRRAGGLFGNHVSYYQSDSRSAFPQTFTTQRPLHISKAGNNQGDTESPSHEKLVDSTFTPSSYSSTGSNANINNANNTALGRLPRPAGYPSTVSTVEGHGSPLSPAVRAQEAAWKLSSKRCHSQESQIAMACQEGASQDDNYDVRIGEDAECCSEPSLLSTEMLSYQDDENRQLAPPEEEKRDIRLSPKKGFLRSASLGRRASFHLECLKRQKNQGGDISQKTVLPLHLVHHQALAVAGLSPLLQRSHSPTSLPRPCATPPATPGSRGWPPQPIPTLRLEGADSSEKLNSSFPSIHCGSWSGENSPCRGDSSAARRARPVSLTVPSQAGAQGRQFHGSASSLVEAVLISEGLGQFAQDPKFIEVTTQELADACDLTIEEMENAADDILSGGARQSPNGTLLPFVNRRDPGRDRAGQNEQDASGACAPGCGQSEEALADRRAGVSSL
T1 sequence (P13806 27-960 partner limits assumed, other chains not shown): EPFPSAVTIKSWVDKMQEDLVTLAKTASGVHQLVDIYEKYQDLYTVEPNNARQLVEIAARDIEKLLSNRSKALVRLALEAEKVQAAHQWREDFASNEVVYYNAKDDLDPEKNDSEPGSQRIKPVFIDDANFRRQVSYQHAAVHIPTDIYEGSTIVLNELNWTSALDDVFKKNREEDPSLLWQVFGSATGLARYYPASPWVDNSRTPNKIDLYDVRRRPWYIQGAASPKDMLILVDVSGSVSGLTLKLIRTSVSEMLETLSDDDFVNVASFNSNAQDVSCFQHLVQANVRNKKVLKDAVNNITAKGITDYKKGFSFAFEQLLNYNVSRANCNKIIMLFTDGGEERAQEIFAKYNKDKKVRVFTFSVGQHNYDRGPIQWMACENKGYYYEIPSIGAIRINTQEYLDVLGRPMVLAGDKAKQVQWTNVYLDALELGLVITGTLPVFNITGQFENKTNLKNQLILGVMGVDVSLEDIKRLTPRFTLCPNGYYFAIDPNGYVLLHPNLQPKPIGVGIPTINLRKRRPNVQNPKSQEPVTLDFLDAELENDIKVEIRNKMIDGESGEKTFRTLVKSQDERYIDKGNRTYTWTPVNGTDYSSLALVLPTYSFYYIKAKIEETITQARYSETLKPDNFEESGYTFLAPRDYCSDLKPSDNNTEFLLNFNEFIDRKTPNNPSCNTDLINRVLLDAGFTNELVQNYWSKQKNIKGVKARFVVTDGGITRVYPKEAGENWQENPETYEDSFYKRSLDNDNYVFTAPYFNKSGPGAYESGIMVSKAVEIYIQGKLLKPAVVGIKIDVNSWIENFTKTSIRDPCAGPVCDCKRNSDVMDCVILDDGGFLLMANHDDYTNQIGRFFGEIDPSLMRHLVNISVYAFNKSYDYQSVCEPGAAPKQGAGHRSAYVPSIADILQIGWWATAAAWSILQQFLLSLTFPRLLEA
T1 sequence (P13806 961-1106 partner limits assumed, other chains not shown): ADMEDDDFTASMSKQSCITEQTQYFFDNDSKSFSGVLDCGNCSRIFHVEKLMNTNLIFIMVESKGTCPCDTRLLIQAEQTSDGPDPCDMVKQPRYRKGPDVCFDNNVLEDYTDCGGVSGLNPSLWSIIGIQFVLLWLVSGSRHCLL

For `CC1=C(C(=O)OCCN(C)Cc2ccsc2)C(c2cccc([N+](=O)[O-])c2)C2=C(CCCCS2(=O)=O)N1` (stereo not shown) [Compound 26, Thiepino[3,2-b]pyridine-3-carboxylic acid, 1,4,6,7,8,9-hexahydro-2-methyl-4-(3-nitrophenyl)-, 2-[methyl(3-thienylmethyl)amino]ethyl ester, 5,5-dioxide], the half-inhibitory concentration (IC50) was found to be 51 nM.

Broadly, the IC50 is the concentration at which inhibition is half-maximal.
